Measurements as given in US12642791B2, “Inhibitors of lysyl oxidases” (UNIVERSITY OF SOUTH CAROLINA, priority 2021, dated 2026).

Tests used:
[1] = test system: MDA-MB-231 cells embedded in collagen I; test: ECM crosslinking by collagen and fibronectin immunofluorescence staining; format: cell-based, human
Method: FIG. 31. […] A. Inhibition of LOX activity in MDA-MB-231 cells treated with 5 μM of the LOX inhibitors. B. Doxorubicin sensitization with 6232 and its analogs, 6403 and 6415, in 3D collagen-I culture. C. Collagen and fibronectin staining of vehicle or 6232 or 6403 or 6415-treated MDA-MB-231 cells embedded in collagen I. BAPN is used as a positive control.
(§1) Immunofluorescence staining of cells was done in μ-Slide 8-well glass bottom chambers (Ibidi, Germany). Cells were fixed with 4% paraformaldehyde for 20 min, permeabilized with 0.5% Triton X-100 for 10 min and blocked in 5% BSA-PBS. Samples were incubated with primary (Collagen I, Fibronectin, F-actin, a-SMA) and secondary Alexa Fluor 647 or 488-labeled antibodies for 1.5 hours at room temperature. Cells were also counterstained with DAPI for 5 min. Images were acquired using ZEN 2012 SP5 (Black) LSM 700 (Carl Zeiss, DE).

[2] = test system: TM01278 PDX; test: Doxorubicin-resistant TNBC PDX tumors; format: in vivo
Method: FIG. 27. Targeting LOX in TNBC PDX organoids or tumors overcomes resistance. A. Scheme showing the selection pipeline of PDXs for in vivo testing. B. Correlation analysis of LOX mRNA expression with hypoxia and focal adhesion scores in 15 different TNBC PDX models. Red dots show the positions of the selected TM01278. C. Representative images of TM01278 PDX organoids at day 0 and day 9 after treatment with doxorubicin (40 nM) and BAPN (25 mM) treatment, alone or in combination (left) and quantification of organoid diameter upon combination therapy for 9 days (right) (n=12 (vehicle, Doxo, BAPN), n=11 (Doxo+BAPN)). D. Tumor growth of TM01278 PDX upon treatment with doxorubicin (2 mg/kg) and BAPN (100 mg/kg), alone or in combination (n=5). […] E. Quantification of Picrosirius red staining in PDX tumors from D (n=4). F. Doxorubicin fluorescence quantification in tumors from D (n=6). G. Western Blots of FAK/Src signaling in PDXs treated with doxorubicin and BAPN alone or in combination.

[3] = test system: Caki-1 cells; test: ECM crosslinking in kidney cancer cells; format: cell-based, human; conditions: 6232 at 10 uM, BAPN at 10 mM
Method: as §1

[4] = test system: MDA-MB-231 cells; test: Doxorubicin chemosensitization in 3D collagen I culture; format: cell-based, human; conditions: collagen I-embedded cells, combination with doxorubicin
Method: Collagen solution was prepared at a concentration of 0.5-1 mg/ml from the rat tail collagen I (Corning, USA) with a neutralization step including the addition of 1N NaOH solution. Cells were trypsinazed and resuspended in collagen:matrigel mix (1:1). 8×10^3 cells were seeded into 96-well or μ-Slide 8-well glass bottom chambers. After 1 hour of incubation at room temperature, media was added on top of the solidified collagen:matrigel mix. Drug treatments were done 12 hours after cell seeding.
Cells were embedded in type I collagen:matrigel mix as described above. Cells were grown in the presence of doxorubicin or LOX inhibitors alone or combination of LOX inhibitors with doxorubicin for 48 hours. After the treatment, cell viability was measured by using 3D Cell Titer Glo (Promega, USA) kit.

[5] = test system: MDA-MB-231 xenografts; test: Acquired doxorubicin resistant xenografts; format: in vivo; conditions: BAPN 100 mg/kg added to doxorubicin 2.5 mg/kg
Method: To test the ability of LOX inhibition to overcome doxorubicin resistance in chemotherapy-refractory TNBC in vivo, the inventors first treated MDA-MB-231 xenografts with doxorubicin until an accelerated tumor growth was achieved.
At this point, BAPN (100 mg/kg) was added to half of the doxorubicin-resistant tumors while the rest continued to receive doxorubicin alone (2.5 mg/kg).
FIG. 26. Inhibiting LOX overcomes resistance in acquired doxorubicin resistant MDA-MB-231 xenografts. A. Tumor growth in xenografts treated with low dose doxorubicin until resistance develops followed by treatment with the combination of doxorubicin (2.5 mg/kg) and the LOX inhibitor, BAPN (100 mg/kg). B. Relative LOX activity in tumors from A. C. Representative images of Picrosirius red in tumors from A.

[6] = test system: cellular lysyl oxidase (LOX) activity, MDA-MB-231 cells; test: Cell-based lysyl oxidase activity assay (Abcam kit); parameters: species or system human; conditions: read-out: IC50 for cellular lysyl oxidase inhibition
Description: As the available LOX inhibitors are either not very potent or have toxicity, the inventors developed a robust screening pipeline shown in FIG. 28 to identify potent and safe LOX-specific and pan-LOX inhibitors. Briefly, a high-throughput cell-based LOX activity (Abcam) screen (HTS) was done for more than 5,000 drug-like compounds from the EXPRESS-Pick diversified library (4,480 molecules, ChemBridge) and Tocriscreen library of bioactive compounds (1,280 compounds, Tocris), each at a single concentration of 10 μM. […] The toxic molecules were counter screened with cell cytotoxicity assay and filtered out.
FIGS. 34. […] IC50 for cellular lysyl oxidase activity upon treatment of MDA-MB-231 cells with different LOX inhibitors. uM=microM.
For cell-based lysyl oxidase activity, fluorometric Lysly Oxidase Activity Assay Kit (Abcam, USA) was used according to manufacturer's instructions. Briefly, after the treatment, 50 μl of supernatant from each well was incubated with reagent mix and fluorescence measured in multimode-reader at Ex/Em=540/590 nm wavelength.

[7] = in vivo; cited from earlier work
[8] = test system: TM01278 PDX organoids; test: PDX-derived TNBC organoids, combination with doxorubicin; format: cell-based, human; conditions: BAPN (25 mM) with doxorubicin (40 nM), 3D culture with collagen I, 9 days
Method: FIG. 36. Combination of 6403 and 6415 with doxorubicin reduced the growth of the TNBC organoids. A. Representative images of TM01278 PDX organoids at day 0 and day 9 after treatment with doxorubicin (50 nM) and 6403 and 6415 treatments, alone or in combination. B. Quantification of organoid diameter and viability upon combination therapy for 9 days.
TNBC organoids were established from a fresh surgical tissue by cutting the tumor into small pieces and incubating in collagenase A solution with ROCK inhibitor on a shaker at 37° C. for 30 minutes. The collagenase activity was inhibited by adding FBS, and pipetting was done to ensure the formation of almost a single cell solution. After several washes with PBS, the cell pellet was dissolved in matrigel. Breast organoid media containing ROCK and GSK inhibitors was added after the Matrigel solidified. See, Sachs, N. et al. A Living Biobank of Breast Cancer Organoids Captures Disease Heterogeneity. Cell 172, 373-386 e310, doi:10.1016/j.cell.2017.11.010 (2018). For drug testing studies, organoids were disrupted to single cells by digesting at 37° C. for 30 mins with TrypLE (A1217701, Gibco, NY, USA) in the presence of 10 μM Rock inhibitor (s1049, Selleckchem, TX, USA). Organoids were plated into wells of 96 well plate (20.000 cells/well) on a collagen-coated surface with media containing 2% Matrigel (356252, Corning, NY, USA). Drugs were added 72 hours after plating. Cells were grown in the presence of drug or vehicle for 9 days, and photos were taken from each well to show the organoid size. Organoid viability was measured by using 3D Cell Titer Glo (Promega, USA) kit.

[9] = test system: MDA-MB-15714; test: Doxorubicin re-sensitization of collagen I-embedded TNBC cells; format: cell-based, human
[10] = test system: MDA-MB-43614; test: as above; format: cell-based, human

N#CCCN [BAPN, 6-aminopropionitrile]
ECM crosslinking (collagen and fibronectin staining) [1]: decrease in ECM crosslinking
LOX activity ([2]; BAPN 100 mg/kg): reduced
doxorubicin penetration ([2]; BAPN 100 mg/kg): enhanced doxorubicin penetration
fibrillar collagen content ([2]; BAPN 100 mg/kg): reduced
tumor growth ([2]; BAPN 100 mg/kg with doxorubicin 2 mg/kg): reduced tumor growth
ECM crosslinking [3]: decrease in ECM crosslinking
doxorubicin sensitization [4]: re-sensitized
LOX activity in tumors [5]: reduction in LOX activity
fibrillar collagen in tumors [5]: reduction
survival [5]: improved survival
tumor growth [5]: significant decrease in tumor growth
IC50 [6]: > 100 µM
toxicity in the clinic [7]: showed toxicity in the clinic
tumor organoid size [8]: significantly decreased tumor organoid size
doxorubicin re-sensitization [9]: re-sensitized
doxorubicin re-sensitization [10]: re-sensitized
